Assay results reported in patent US20150157588A1, “Pharmaceutical Composition Comprising Amino-Phenyl-Acetic Acid Octadec-(Z)-9-enyl Ester and Use Thereof for Treating Tumors” (Yeda Research and Development Co., Ltd., priority 2012, published 2015).

Assays:
[1] = tested on: Clone D122 of the 3LL mouse Lewis Lung carcinoma; experiment: Lung carcinoma mouse model: 3LL cells in footpad, local growth and mortality from lung metastasis after excision; format: in vivo; conditions: for day of 50% mortality from lung metastasis: 100 μg in PBS subcutaneously twice weekly
Protocol: Clone D122 of the 3LL mouse Lewis Lung carcinoma, a standard model of growth and metastasis, was used. Syngeneic 8-weeks old C57BL/6 male mice were injected into one hind footpad with 50,000 3LL tumor cells. Local growth of the tumor was followed. Tumors that reached the size of 8 mm×8 mm were excised; tumor excision at this stage was known to trigger the growth of lung metastases that eventually killed the mice. This model allows for investigation of the effect of treatment on two phases of the tumor progression: 1) the effect on local growth, as determined by the time it takes for the tumors to reach the size for excision; and 2) the effect on tumor metastasis as measured by the time it takes for death to occur after excision.
Three groups of 12-13 mice each were injected with 3LL tumor cells as described in the Materials and Methods section, and were treated subcutaneously with 100 μg of amino-phenyl-acetic acid octadec-(Z)-9-enyl ester injected twice weekly (every Monday and Thursday) either from day 6 after tumor injection (to investigate the effect on local growth and metastasis) or from the time of excision of the tumor (to investigate the effect on metastasis only), or were injected with PBS as a control. […] Tumors were excised on the same day. Mice treated with PBS or mice treated with amino-phenyl-acetic acid octadec-(Z)-9-enyl ester in PBS only following tumor excision reached excision size beginning on day 25 (white bars). In contrast, mice treated with amino-phenyl-acetic acid octadec-(Z)-9-enyl ester from day 6 following injection (black bars) reached excision size on day 32, and all mice were excised by day 41.
The PBS-treated mice reached 50% mortality on day 50 (triangles); the mice receiving amino-phenyl-acetic acid octadec-(Z)-9-enyl ester in PBS after tumor excision reached 50% mortality only on day 68 (squares); and the mice treated with amino-phenyl-acetic acid octadec-(Z)-9-enyl ester in PBS from day 6 following tumor implantation reached 50% mortality on day 90 (circles).

[2] = tested on: Jurkat transformed T cell line; experiment: Apoptosis by FACS, hypo-diploid nuclei PI staining, Jurkat cells; format: cell-based, human; conditions: Jurkat tumor line cells; 10 μg in ethanol solution
Protocol: White bars (left bar of each pair) represent cells treated with 10 μg of amino-phenyl-acetic acid octadec-(Z)-9-enyl ester in ethanol solution, and black bars (right bar of each pair) represent cells treated with 10 μg of the control molecule 4-methyl-piperazino-acetic acid ethyl ester in ethanol solution. The two bars on the left represent freshly isolated T cells and the two bars on the right represent transformed Jurkat cells.
B or T-cell apoptosis was detected by flow cytometry. Briefly, purified cells were seeded in 24 well plates, 5×10^5 per well, and incubated for 48 h at 37° C. 5% CO2 in the presence of HSP60 (heat shock protein 60) at the indicated concentration of amino-phenyl-acetic acid octadec-(Z)-9-enyl ester. […] The cells were then subjected to flow cytometric analysis; for each sample 10,000 were collected and cell-cycle distribution was analyzed according to relative DNA content (PI staining). […] The cells were then collected, stained by APO-DIRECT TUNNEL kit (Phnxflow, CITY, Calif., USA); mitochondrial potential was measured by DePsipher (R&D Systems, Minneapolis, Minn.) according to the manufacturer's procedure. Intracellular caspase activity was measured by Apostat kit (R&D Systems), according to the manufacturer's procedure. The cells were analyzed by Flow cytometry using FACSort (Becton Dickinson) and CellQuest software (Becton Dickinson).

[3] = tested on: unstimulated CD3 positive T cells; experiment: Microarray gene expression, unstimulated T cells; format: cell-based, human; conditions: for Fold change C16orf7: 205781_at; for Fold change TNFRSF17: 206641_at; for Fold change LILRB2 /// LILRB3: 210784_x_at; for Fold change CLEC11A: 211709_s_at; for Fold change WDR33: 218851_s_at
Protocol: CD3 positive T cells were extracted from a healthy donor according to a standard protocol, and seeded in T cell medium including RPMI, 10% fetal calf serum, sodium pyruvate, L-Glutamine, and Penicillin/Streptomycin. Following an overnight incubation with medium, the cells were treated by incubating for 2 hours at 37° C. with amino-phenyl-acetic acid octadec-(Z)-9-enyl ester at a concentration of 10 micrograms/ml in a final volume of 10 ml in T-cell medium with or without 0.05% ethanol. After incubation, half the cells from each treatment were centrifuged and 2 ml of Tri-reagent (Sigma) were added to the pellet. The other half of the cells from each treatment were transferred to anti-CD3 antibody coated 24 well plates for an overnight incubation at 37° C. Coating plates with an anti-CD3 antibody was carried out by incubating with 2 micrograms/ml of OKT3 anti-CD3 antibody overnight at 4° C., washing three times with PBS and blocking with filtered 1% Bovine Serum Albumin for 1 hour. After activation with anti-CD3 antibody, cells were centrifuged and 2 ml of Tri-reagent were added to the pellet.
RNA was extracted from unstimulated cells and from cells activated with anti-CD3 according to standard protocols and used for hybridization with a Human Genome U133A 2.0 (Affymetrix, Catalogue number 900468), according to the manufacturer's instructions. The results of the hybridization were read by a GeneChip scanner 3000 (Affymetrix) and analyzed by QuantArray (GSI lumonics).
The effects of amino-phenyl-acetic acid octadec-(Z)-9-enyl ester in ethanol solution or in an aqueous vehicle (hereinafter termed “in PBS”) on gene expression in unstimulated T cells and T cells activated by anti-CD3 antibody were compared by microarray analysis.

[4] = 100 μg in PBS subcutaneously twice weekly from day 6 after tumor injection
[5] = in ethanol solution vs untreated
[6] = in ethanol solution vs untreated, data not shown

## CCCCCCCC/C=C\CCCCCCCCOC(=O)C(N)c1ccccc1 (stereo not drawn) [amino-phenyl-acetic acid octadec-(Z)-9-enyl ester]
[1]; [4]
  day after tumor injection on which mice reached excision size (8 mm×8 mm): 32 days
  day by which all mice were excised: ≤ 41 days
[1]; from day 6 following tumor implantation
  day of 50% mortality from lung metastasis: 90 days
[1]; from tumor excision
  day of 50% mortality from lung metastasis: 68 days
[1]; twice weekly at the dose of 100 μg, in PBS, subcutaneously
  effect on local tumor growth: inhibited local tumor growth
[2]
  apoptosis: 100%
[3]; 32402_s_at, in ethanol solution vs in PBS
  Fold change SYMPK: 2.03
[3]; 44783_s_at, in ethanol solution vs untreated
  Fold change HEY1: 2.11
[3]; 204083_s_at, in ethanol solution vs untreated
  Fold change TPM2: 2.39
[3]; 204695_at, in ethanol solution vs in PBS
  Fold change CDC25A: 1.94
[3]; 204718_at, in ethanol solution vs in PBS
  Fold change EPHB6: 2.019
[3]; 204802_at, in ethanol solution vs in PBS
  Fold change RRAD: 2.27
[3]; in ethanol solution vs in PBS
  Fold change C16orf7: 2.54
  Fold change TNFRSF17: 2.08
  Fold change LILRB2 /// LILRB3: 2.00
  Fold change CLEC11A: 2.10
  Fold change WDR33: 2.79
[3]; [5]
  Fold change C16orf7: 2.15
  Fold change TNFRSF17: 2.06
  Fold change CLEC11A: 2.19
  Fold change WDR33: 2.32
[3]; 206221_at, in PBS vs untreated
  Fold change RASA3: −2.23
[3]; 206548_at, in ethanol solution vs in PBS
  Fold change FLJ23556: 1.94
[3]; 206748_s_at, in PBS vs untreated
  Fold change SPAG9: −1.81
[3]; 207159_x_at, in ethanol solution vs in PBS
  Fold change CRTC1: 1.96
[3]; 209263_x_at, in ethanol solution vs in PBS
  Fold change TSPAN4: 2.24
[3]; 209381_x_at, in ethanol solution vs untreated
  Fold change SF3A2: 1.95
[3]; 210144_at, in ethanol solution vs untreated
  Fold change TBC1D22A: 2.03
[3]; in PBS vs untreated
  Fold change LILRB2 /// LILRB3: −1.84
  up-regulated genes: no significantly up-regulated genes
[3]; 212563_at, in ethanol solution vs in PBS
  Fold change BOP1 /// LOC727967: 1.94
[3]; 213931_at, in ethanol solution vs in PBS
  Fold change ID2 /// ID2B: 2.04
[3]; 214057_at, in ethanol solution vs untreated
  Fold change MCL1: 2.12
[3]; 214370_at, in ethanol solution vs untreated
  Fold change S100A8: 1.9
[3]; 214975_s_at, in PBS vs untreated
  Fold change MTMR1: −2.41
[3]; 215450_at, in ethanol solution vs untreated
  Fold change probeset 215450_at: 1.98
[3]; 217817_at, in ethanol solution vs untreated
  Fold change ARPC4: 2.03
[3]; 218148_at, in ethanol solution vs untreated
  Fold change CENPT: 1.94
[3]; 218161_s_at, in ethanol solution vs in PBS
  Fold change CLN6: 1.94
[3]; 218847_at, in ethanol solution vs untreated
  Fold change IGF2BP2: 2.02
[3]; 222285_at, in ethanol solution vs untreated
  Fold change IGHD: 1.98
[3]; 222376_at, in ethanol solution vs untreated
  Fold change probeset 222376_at: 2.11
[3]; in ethanol solution compared with in PBS
  number of down-regulated genes: 497 genes
[3]; [6]
  fold down-regulation of the down-regulated genes: 2-18 fold
  number of down-regulated genes: 573 genes
